System: phosphorylated Akt at serine 473 (pAKTs473) in primary human lung fibroblasts
Experiment: High throughput phosphorylated Akt (Ser473) in vitro immunoassay (MSD)
Assay type: cell-based
Conditions: Fibroblast, primary human lung fibroblasts (Lonza), 384-well, compound 1 h, PDGF-BB 10 ng/ml 10 min, read-out: mean pIC50, pAKTser473 high throughput immunoassay (converted)
Excerpt: Immunoassay to measure effect of test compounds on phosphorylated Akt at serine 473 (pAKTs473) in primary human lung fibroblasts (Lonza Group Ltd, Basel, Switzerland, Catalogue No. CC-2512) using the MesoScale Discovery (MSD) platform to quantify levels of total Akt and pAKTser473.
Human lung fibroblasts were routinely maintained in fibroblast basal medium supplemented with 2% foetal bovine serum (FBS), 0.1% human fibroblast growth factor (FGF)-B, 0.1% insulin, 0.1% GA-100 (Lonza Group Ltd, Basel, Switzerland, Catalogue No. CC-3132) at 37° C. in 5% CO2 according to the manufacturer's protocol.
For the assay, cells were harvested using Trypsin/EDTA, (Lonza Group Ltd, Basel, Switzerland, Catalogue No. CC-5012), at working concentration of 0.025%, resuspended to give 3×10^5 cells/ml and 50 ul/well seeded into 384-well plates (Greiner Group, Kremsmunster, Austria, Catalogue No. 781091) in media containing 0.4% FBS and incubated o/n at 37° C. in 5% CO2.
Test compounds were dissolved in 100% DMSO to give 10 mM stock solutions and serially diluted to generate an 11-point concentration response curve. Compound were further diluted by […] into 384-well V-bottom polypropylene plates (Greiner Group, Kremsmunster, Austria, Catalogue No. 781280) with media containing 0.4% FBS to give 50 µM top compound concentration in 0.5% DMSO.
Compounds were transferred to 384-well plates contacting cells (0.1% DMSO final) and incubated for 1 h at 37° C. in 5% CO2, prior to stimulation with platelet-derived growth factor (PDGF)-BB (R&D Systems, Catalogue No. 220-BB) at 10 ng/ml (final) for 10 min at RT. Cell assay plates were incubated on ice and treated with lysis buffer (Cell Signalling Technology, Catalogue No. 9806) containing protease and phosphatase inhibitors (Thermo Scientific, Catalogue No. 78444) followed by shaking for 30 min at 4° C.
MSD plates (MSD, MA6000 384-well GAR plate, Catalogue No. L21RA-2) were blocked with blocking buffer containing TBS (MSD, Cat. No. R61TX-1) with 0.5% bovine serum albumin (BSA) (Sigma Aldrich, Cat. No. A7906), 0.1% tween-20 (Sigma Aldrich, Catalogue No. P2287) and coated with rabbit-anti-human pAkt (s473) ab (Cell Signalling Technology, Catalogue No. CST #4060) at RT with shaking, followed by washing (×3) with 1×TBS wash reagent containing 0.1% Tween-20. Cell lysates (30 ul) were added and MSD plates centrifuged at 1000 rpm at 4° C. o/n.
Plates were washed with 1×TBS wash buffer (×3), prior to addition of mouse-anti-human-total Akt ab (1 mg/ml) (Upstate (Milipore), Catalogue No. 05-591) in blocking buffer and shaken at RT for 1 h. After washing with 1×TBS wash buffer (×3), plates were incubated with goat-anti-mouse SULFO-TAG detection ab (MSD, Catalogue No. R32AC-1) (1:500 in blocking buffer) for 1 h at RT. Plates were washed with 1×TBS (×3) and read buffer (2×) (MSD, Catalogue No. R92TC-1) added before detecting electrochemiluminescence (MSD Sector Imager 6000).
Data analysis was performed by determining % inhibition values for test compounds relative to the minimum (+PDGF-BB stimulation) and maximum responses (no PDGF-BB stimulation) with non-linear regression analysis to determine IC50 values for test compounds.

Row | SMILES | IC50 [nM]
1 | CNCc1cc2nc(-c3cc(CS(C)(=O)=O)cc(N4CCO[C@H](C)[C@H]4C)n3)ccc2[nH]1 [Example 8, 1-(5-(6-((2R,3R)-2,3-dimethylmorpholino)-4-((methylsulfonyl)methyl)pyridin-2-yl)-1Hpyrrolo[3,2-b]pyridin-2-yl)-Nmethylmethanamine] | 2.51 to 25.1
2 | CC[C@H]1COCC(=O)N1c1cc(C2(S(C)(=O)=O)CCOCC2)cc(-c2ccc3[nH]c(C)cc3n2)n1 [Example 25, (S)-5-ethyl-4-(6-(2-methyl-1H-pyrrolo[3,2-b]pyridin-5-yl)-4-(4-(methylsulfonyl)tetrahydro-2H-pyran-4-yl)pyridin-2-yl)morpholin-3-one] | 2.51 to 25.1
3 | CC[C@H]1COCCN1c1cc(CS(N)(=O)=O)cc(-c2ccc3[nH]c(C)cc3n2)n1 [Example 23, (S)-(2-(3-ethylmorpholino)-6-(2-methyl-1H-pyrrolo[3,2-b]pyridin-5-yl)pyridin-4-yl)methanesulfonamide] | 2.51 to 25.1
4 | CC[C@H]1COCC(=O)N1c1cc(CS(C)(=O)=O)cc(-c2ccc3[nH]c(C)cc3n2)n1 [Example 24, (S)-5-ethyl-4-(6-(2-methyl-1H-pyrrolo[3,2-b]pyridin-5-yl)-4-((methylsulfonyl)methyl)pyridin-2-yl)morpholin-3-one] | 2.51 to 25.1
5 | CC[C@H]1COCCN1c1cc(CS(C)(=O)=O)nc(-c2ccc3[nH]c(CNC)cc3n2)n1 [Example 1, [(5-{4-[(3S)-3-ethylmorpholin-4-yl]-6-(methanesulfonylmethyl)pyrimidin-2-yl}-1H-pyrrolo[3,2-b]pyridin-2-yl)methyl](methyl)amine] | 2.51 to 25.1
6 | CC[C@H]1COCCN1c1cc(C2(S(C)(=O)=O)CCOCC2)nc(-c2ccc3[nH]c(C)cc3n2)n1 [Example 13, (3S)-3-ethyl-4-[6-(4-methanesulfonyloxan-4-yl)-2-{2-methyl-1H-pyrrolo[3,2-b]pyridin-5-yl}pyrimidin-4-yl]morpholine] | 2.51 to 25.1
7 | CC[C@H]1COCC(=O)N1c1cc(CS(C)(=O)=O)nc(-c2ccc3[nH]c(C)cc3n2)n1 [Example 14, (5S)-5-ethyl-4-[6-(methanesulfonylmethyl)-2-{2-methyl-1H-pyrrolo[3,2-b]pyridin-5-yl}pyrimidin-4-yl]morpholin-3-one] | 2.51 to 25.1
8 | CC[C@H]1COCCN1c1cc(CS(=O)(=O)N(C)C)nc(-c2ccc3[nH]c(CNC)cc3n2)n1 [Example 16, 1-{6-[(3S)-3-ethylmorpholin-4-yl]-2-{2-[(methylamino)methyl]-1H-pyrrolo[3,2-b]pyridin-5-yl}pyrimidin-4-yl}-N,N-dimethylmethanesulfonamide] | 2.51 to 25.1
9 | CC[C@H]1COCCN1c1cc(CS(=O)(=O)N(C)C)nc(-c2ccc3[nH]c(CO)cc3n2)n1 [Example 9, 1-{6-[(3S)-3-ethylmorpholin-4-yl]-2-[2-(hydroxymethyl)-1H-pyrrolo[3,2-b]pyridin-5-yl]pyrimidin-4-yl}-N,N-dimethylmethanesulfonamide] | 2.51 to 25.1
10 | CC[C@H]1COCC(=O)N1c1cc(C2(S(C)(=O)=O)CCOCC2)cc(-c2ccc3[nH]c(CO)cc3n2)n1 [Example 26] | 2.51 to 25.1
11 | CC[C@H]1COCCN1c1cc(CS(=O)(=O)NC)nc(-c2ccc3[nH]c(CO)cc3n2)n1 [Example 10, 1-{6-[(3S)-3-ethylmorpholin-4-yl]-2-[2-(hydroxymethyl)-1H-pyrrolo[3,2-b]pyridin-5-yl]pyrimidin-4-yl}-N-methylmethanesulfonamide] | 2.51 to 25.1
12 | CCc1cc2nc(-c3nc(CS(C)(=O)=O)cc(N4C(=O)COC[C@@H]4CC)n3)ccc2[nH]1 [Example 15, (5S)-5-ethyl-4-(2-{2-ethyl-1H-pyrrolo[3,2-b]pyridin-5-yl}-6-(methanesulfonylmethyl)pyrimidin-4-yl)morpholin-3-one] | 2.51 to 25.1
